The text below walks through data of paper PMC9423655, “Huntington’s disease phenotypes are improved via mTORC1 modulation by small molecule therapy” (PLoS ONE, 2022).

For one assay, the system named is mTORC1. Description: mTORC1 activation (pS6K1 immunoblot) in leucine-starved HEK293T cells. The format is cell-based. To be noted: HEK293T cells starved of leucine 50 minutes, treatment 10 minutes. The protocol:
All cell lines were cultured in DMEM (Corning, #MT10013CV) supplemented with 10% heat-inactivated FBS (Gibco, #16140–071). All cell lines were maintained at 37°C and 5% CO2. For amino acid starvation, cells were rinsed once with and incubated Amino acid-free RPMI (US Biologicals, #R8999-04A) supplemented with 10% dialyzed FBS (Gibco, #26400044) for 50 min followed by treatment with NV-5297, leucine, or vehicle for 10 minutes. For leucine starvation, cells were rinsed once with and incubated in leucine-free DMEM (AthenaES, #0420) supplemented with 10% dialyzed FBS (Gibco, #26400044) for 50 minuted followed by treatment with NV-5297, leucine, or vehicle for 10 minutes.
(A) Activation of the mTORC1 pathway by NV-5297. […] (B) NV-5297 disrupts Sestrin2/GATOR2 in the in vitro Sesn2/WDR24 protein-protein interaction assay in a dose-dependent manner. […] Representative immunoblots of ^T389pS6K1 and quantification of the normalized level of ^T389pS6K1 from 8 independent experiments (F) show TORC1 activity in unedited HEK-293T cells, HEK-293T cells deficient for Sestrin 1 (Sesn1), 2 (Sesn2) and 3 (Sesn3) (D) or HEK-293T cells deficient for the GATOR1 component Nprl3 (E) after 50 minutes leucine starvation followed by the addition of vehicle, NV-5297 or leucine for 10 minutes. […]
On the technique in general: Immunoblotting shows a protein as a band on a membrane.

In a further assay the test system is N171-82Q HD mice. Briefly: Isoprenaline cardiac stress: survival, weight, echocardiography, heart weight, cardiomyocyte area, fibrosis. In kind it is in vivo, N171-82Q mice. As to the method: The initial trial consisted in one week of oral dosing in 12 weeks old N171-82Q males. The chronic 6 weeks treatment (Veh n = 15, NV-5297 n = 14) took place from 6 to 12 weeks of age. The cardiac stress took place in animals from 10 to 12 weeks of age (Veh-Sal n = 9, NV-Sal n = 10, Veh-Iso n = 16, NV-Iso n = 11).
Mice were anesthetized with 2% isoflurane and restrained on a stage with electrocardiogram (EKG) sensors. Transthoracic echocardiograms were performed using the Vevo 3100 Imaging System with a linear array MX550D transducer. Images were acquired by an experienced echocardiographer and then analyzed offline using the Vevo LAB analysis software. Parasternal long axis views and short axis views were used to assess left ventricular function. Measurements were performed to evaluate left ventricular dimensions during both systole and diastole of the cardiac cycle. The Vevo LAB left ventricle [LV] analysis tool, LV trace, was used to calculate cardiac output [CO] (heart rate ∙ stroke volume), fractional shortening [FS] (ventricle diameter at the end of the diastole–ventricle diameter at the end of the systole), ejection fraction [EF] (percentage of blood ejected by the left ventricle by heart beat), stroke volume (SV) (blood volume ejected from the left ventricle per beat), heart rate [HR] (bpm), left ventricular mass [LVmass], dimensions and volumes. Both imaging and analysis were performed by an operator blinded to the mice experimental treatment.
Cardiomyocyte area was measured in wheat germ agglutinin-labelled heart sections as previously described. Briefly, sections were cleared and rehydrated through xylene and ethanol, then labelled with WGA conjugated to Alexa Fluor 594 (8 μg/ml, Biotium) per manufacturer’s protocol. Sections were counterstained with Hoechst stain (2 μg/ml, Thermo Scientific). High-power digital images were collected such that the entirety of the left ventricular free wall was represented. A grid was superimposed over each image in ImageJ to randomly select cardiomyocytes sectioned perpendicular to the long axis, and the area of those cells was measured manually. At least 240 cardiomyocytes were measured per section. Cardiomyocyte areas were averaged for each treatment group.
The percent of area occupied by fibrotic tissue was calculated as previously described. Briefly, heart sections were cleared and rehydrated through xylene and ethanol. Sections were counterstained with Weigert’s haematoxylin (Sigma) per manufacturer’s protocol. Collagen was labelled by staining to equilibrium with Picrosirius red (0.1% Direct Red 80, Sigma, in saturated picric acid, Sigma). Bright field and corresponding polarized light digital images were taken such that the entirety of the left ventricular free wall was represented. Image threshold was adjusted to highlight either the entire tissue (bright field) or the fibrotic tissue (polarized) in ImageJ, and percent area occupied by fibrotic tissue was calculated from these images. Large vessels were excluded from the analysis.
Isoprenaline (Sigma) was dissolved in sterile PBS and administered by continuous infusion using implantable mini-osmotic pumps (Alzet) at a dose of 30 mg/kg body mass/day. Pumps were filled and primed in a sterile environment and inserted under 2.5% isoflurane anesthesia into the right dorsal subcutaneous space caudal to the scapulae.
We next tested if daily NV-5297 dosing in HD mice could enable cardiac adaptation to chronic stress. In this experiment, the NV-Sal and Veh-Sal groups have an osmotic pump implant on their back. The presence of this pump makes the echocardiography more challenging, justifying the difference to the baseline groups measurements along with the smaller sample size for this experiment. For this study, we found no significant […] and therefore we focused on the changes within the vehicle-treated groups and within the NV-5297-treated groups. […]

Where [1] appears, read: N171-82Q mice under isoprenaline cardiac stress.

A word on the mortality: it is the share of the test organisms that died. For `CC(C)(C[C@H](N)C(=O)O)C(F)(F)F` [NV-5297, (S)-2-amino-5,5,5-trifluoro-4,4-dimethylpentanoic acid], the “mTORC1 activation measured by phosphorylated S6K1 (pS6K1 / p70S6K1)” value with mTORC1 is given as “activates mTORC1 in leucine-starved HEK293T cells in a dose-dependent manner”. Besides, the mortality with N171-82Q HD mice (Iso-stressed N171-82Q mice (isoprenaline 30 mg/kg/day, 14 days), NV-5297 160 mg/kg oral daily) came out at 45%. In addition, in the assay with N171-82Q HD mice (setting [1]), the “body weight over trial duration” value is recorded as “maintained their weight”, the “cardiac output from baseline” value is reported as “increase”, the cardiomyocyte area result is “increased” and the “ejection fraction from baseline” value is reported as “increased”. Moreover, in the assay on N171-82Q HD mice (setting [1]), the “fractional shortening from baseline” value was “increased”, the heart fibrosis entry is “devoid of fibrosis”, the heart mass result is recorded as “elevated” and the “stroke volume from baseline” value is given as “increased”. For the same compound, the heart rate entry in the assay on N171-82Q HD mice (N171-82Q mice under isoprenaline cardiac stress (NV-Iso)) is given as “maintain a normal heart rate”. In addition, the survival in the assay on N171-82Q HD mice (N171-82Q mice with saline implant (NV-Sal group), NV-5297 160 mg/kg oral daily) is listed as 100%.
